Measured values taken from the NIST ThermoML archive (doi:10.1016/j.jct.2008.06.001).
Numbers after ± are expanded uncertainties.

Columns and labels:
[1] = 101.33 kPa, Liquid; for speed of sound: Sing-around technique in a fixed-path interferometer
[2] = xn = mol fraction of the nth substance listed; settings: 101 kPa, Liquid

CCCCCCCCCCO [decan-1-ol]
[1]
Settings | mass density [kg/m3] | speed of sound [m/s]
293.15 K | 829.601 ± 0.53 | 1396.2 ± 1.2
298.15 K | 826.198 ± 0.54 | 1378.9 ± 1.2
303.15 K | 822.767 ± 0.54 | 1361.7 ± 1.2

CCCCCCCCCCO [decan-1-ol] + CCCCOCCCC
[2]
Settings | mass density [kg/m3]
293.15 K, x1 = 0.1021 | 776.363 ± 0.51
293.15 K, x1 = 0.1496 | 779.787 ± 0.51
293.15 K, x1 = 0.1993 | 783.289 ± 0.51
293.15 K, x1 = 0.25 | 786.71 ± 0.51
293.15 K, x1 = 0.2996 | 789.984 ± 0.51
293.15 K, x1 = 0.3412 | 792.683 ± 0.5
293.15 K, x1 = 0.3978 | 796.258 ± 0.5
293.15 K, x1 = 0.4468 | 799.27 ± 0.5
293.15 K, x1 = 0.4978 | 802.397 ± 0.51
293.15 K, x1 = 0.5495 | 805.461 ± 0.51
293.15 K, x1 = 0.6009 | 808.42 ± 0.51
293.15 K, x1 = 0.65 | 811.195 ± 0.51
293.15 K, x1 = 0.6993 | 813.929 ± 0.51
293.15 K, x1 = 0.7464 | 816.506 ± 0.51
293.15 K, x1 = 0.7946 | 819.104 ± 0.51
293.15 K, x1 = 0.8488 | 821.951 ± 0.52
293.15 K, x1 = 0.9004 | 824.616 ± 0.52
293.15 K, x1 = 0.95 | 827.118 ± 0.52
298.15 K, x1 = 0.0516 | 768.307 ± 0.52
298.15 K, x1 = 0.1006 | 772.051 ± 0.52
298.15 K, x1 = 0.1498 | 775.68 ± 0.51
298.15 K, x1 = 0.2012 | 779.315 ± 0.51
298.15 K, x1 = 0.2522 | 782.834 ± 0.51
298.15 K, x1 = 0.2996 | 786.011 ± 0.51
298.15 K, x1 = 0.35 | 789.331 ± 0.51
298.15 K, x1 = 0.3994 | 792.479 ± 0.51
298.15 K, x1 = 0.4479 | 795.536 ± 0.51
298.15 K, x1 = 0.4981 | 798.656 ± 0.51
298.15 K, x1 = 0.5512 | 801.843 ± 0.51
298.15 K, x1 = 0.5993 | 804.66 ± 0.51
298.15 K, x1 = 0.6492 | 807.539 ± 0.51
298.15 K, x1 = 0.6995 | 810.378 ± 0.51
298.15 K, x1 = 0.7501 | 813.185 ± 0.52
298.15 K, x1 = 0.7981 | 815.763 ± 0.52
298.15 K, x1 = 0.8498 | 818.511 ± 0.52
298.15 K, x1 = 0.9001 | 821.147 ± 0.52
298.15 K, x1 = 0.9498 | 823.681 ± 0.53
303.15 K, x1 = 0.0509 | 763.957 ± 0.53
303.15 K, x1 = 0.1009 | 767.841 ± 0.52
303.15 K, x1 = 0.1503 | 771.536 ± 0.52
303.15 K, x1 = 0.1994 | 775.085 ± 0.52
303.15 K, x1 = 0.25 | 778.691 ± 0.52
303.15 K, x1 = 0.2996 | 782.028 ± 0.52
303.15 K, x1 = 0.3498 | 785.36 ± 0.52
303.15 K, x1 = 0.3992 | 788.589 ± 0.52
303.15 K, x1 = 0.4451 | 791.54 ± 0.52
303.15 K, x1 = 0.4944 | 794.601 ± 0.52
303.15 K, x1 = 0.5509 | 798.05 ± 0.52
303.15 K, x1 = 0.5921 | 800.526 ± 0.52
303.15 K, x1 = 0.6514 | 803.989 ± 0.52
303.15 K, x1 = 0.6896 | 806.226 ± 0.52
303.15 K, x1 = 0.7493 | 809.528 ± 0.52
303.15 K, x1 = 0.7963 | 812.111 ± 0.52
303.15 K, x1 = 0.8475 | 814.866 ± 0.53
303.15 K, x1 = 0.899 | 817.595 ± 0.53
303.15 K, x1 = 0.9474 | 820.099 ± 0.53

CCCCCCCO [heptan-1-ol]
[1]
Settings | mass density [kg/m3] | speed of sound [m/s]
293.15 K | 822.398 ± 0.54 | 1344 ± 1.2
298.15 K | 818.894 ± 0.55 | 1326.7 ± 1.2
303.15 K | 815.357 ± 0.55 | 1309.9 ± 1.2

CCCCCCCO [heptan-1-ol] + CCCCOCCCC
[2]
Settings | mass density [kg/m3]
293.15 K, x1 = 0.1017 | 773.953 ± 0.51
293.15 K, x1 = 0.1519 | 776.565 ± 0.51
293.15 K, x1 = 0.1998 | 779.042 ± 0.51
293.15 K, x1 = 0.2503 | 781.671 ± 0.51
293.15 K, x1 = 0.3495 | 786.842 ± 0.51
293.15 K, x1 = 0.4019 | 789.598 ± 0.51
293.15 K, x1 = 0.4529 | 792.309 ± 0.51
293.15 K, x1 = 0.5013 | 794.907 ± 0.52
293.15 K, x1 = 0.548 | 797.412 ± 0.52
293.15 K, x1 = 0.6032 | 800.39 ± 0.52
293.15 K, x1 = 0.6486 | 802.884 ± 0.52
293.15 K, x1 = 0.7001 | 805.686 ± 0.52
293.15 K, x1 = 0.7515 | 808.582 ± 0.52
293.15 K, x1 = 0.7771 | 809.94 ± 0.52
293.15 K, x1 = 0.8009 | 811.278 ± 0.53
293.15 K, x1 = 0.8982 | 816.689 ± 0.53
293.15 K, x1 = 0.947 | 819.42 ± 0.53
298.15 K, x1 = 0.0513 | 767.002 ± 0.52
298.15 K, x1 = 0.0991 | 769.571 ± 0.52
298.15 K, x1 = 0.1526 | 772.412 ± 0.52
298.15 K, x1 = 0.2019 | 775.005 ± 0.52
298.15 K, x1 = 0.2506 | 777.565 ± 0.52
298.15 K, x1 = 0.3033 | 780.366 ± 0.52
298.15 K, x1 = 0.3498 | 782.806 ± 0.52
298.15 K, x1 = 0.4 | 785.5 ± 0.52
298.15 K, x1 = 0.4523 | 788.317 ± 0.52
298.15 K, x1 = 0.4995 | 790.883 ± 0.52
298.15 K, x1 = 0.5491 | 793.589 ± 0.52
298.15 K, x1 = 0.6026 | 796.53 ± 0.52
298.15 K, x1 = 0.6503 | 799.167 ± 0.52
298.15 K, x1 = 0.6985 | 801.859 ± 0.53
298.15 K, x1 = 0.7533 | 804.902 ± 0.53
298.15 K, x1 = 0.8005 | 807.562 ± 0.53
298.15 K, x1 = 0.8485 | 810.291 ± 0.53
298.15 K, x1 = 0.8994 | 813.176 ± 0.53
298.15 K, x1 = 0.9439 | 815.703 ± 0.54
303.15 K, x1 = 0.0548 | 762.859 ± 0.53
303.15 K, x1 = 0.1037 | 765.526 ± 0.53
303.15 K, x1 = 0.1537 | 768.203 ± 0.53
303.15 K, x1 = 0.2034 | 770.861 ± 0.53
303.15 K, x1 = 0.2496 | 773.336 ± 0.53
303.15 K, x1 = 0.3003 | 776.062 ± 0.53
303.15 K, x1 = 0.3482 | 778.634 ± 0.53
303.15 K, x1 = 0.3977 | 781.333 ± 0.53
303.15 K, x1 = 0.4501 | 784.185 ± 0.53
303.15 K, x1 = 0.4938 | 786.627 ± 0.53
303.15 K, x1 = 0.5487 | 789.635 ± 0.53
303.15 K, x1 = 0.6009 | 792.536 ± 0.53
303.15 K, x1 = 0.6508 | 795.355 ± 0.53
303.15 K, x1 = 0.6994 | 798.099 ± 0.53
303.15 K, x1 = 0.7519 | 801.07 ± 0.53
303.15 K, x1 = 0.8005 | 803.865 ± 0.53
303.15 K, x1 = 0.851 | 806.755 ± 0.54
303.15 K, x1 = 0.8994 | 809.543 ± 0.54
303.15 K, x1 = 0.946 | 812.239 ± 0.54

CCCCCCCCO [octan-1-ol]
[1]
Settings | mass density [kg/m3] | speed of sound [m/s]
293.15 K | 825.183 ± 0.54 | 1364.3 ± 1.2
298.15 K | 821.732 ± 0.54 | 1347.1 ± 1.2
303.15 K | 818.248 ± 0.55 | 1330.2 ± 1.2
